Experimental data published in ChEMBL document CHEMBL4808184, “Discovery and Optimization of DNA Gyrase and Topoisomerase IV Inhibitors with Potent Activity against Fluoroquinolone-Resistant Gram-Positive Bacteria” (J Med Chem, 2021).
Converted amounts (≈) assume the structure as drawn.

Key:
[1] = test system: Staphylococcus aureus; test: microbe, parasite or virus in culture; conditions: ATCC 49951
[2] = physchem
[3] = physchem; conditions: octanol/water, pH 7.4
[4] = test system: Staphylococcus aureus; test: microbe, parasite or virus in culture; conditions: ATCC 49951; remark: listed apart in the source
[5] = test system: HepG2; test: cells; conditions: Homo sapiens, HepG2, 72 h
[6] = test system: K562; test: cells; conditions: Homo sapiens, K562, 72 h

Row | SMILES | MIC [1] [µg/mL] | pKa [2] | logD [3] | MIC [4] [µg/mL] | EC50 [5] [µM] | EC50 [6] [µM]
1 | C[C@H]1COc2c(N3CC4[C@H](C3)[C@H](N)CCC4(F)F)c(F)cc3cc(C(=O)O)c(=O)n1c23 (single isomer, unassigned) | ≤ 0.03 | 5.1 | -0.78 | 0.125 (≈ 0.286 µM) |  | 
2 | C[C@H]1COc2c(N3CC[C@@H](C4(N)CC4)C3)c(C#N)cc3cc(C(=O)O)c(=O)n1c23 | 0.25 (≈ 0.634 µM) |  | -1.77 | 4 (≈ 10.1 µM) |  | 
3 | C[C@H]1COc2c(N3CC4CCC[C@@H](N)[C@H]4C3)c(F)cc3cc(C(=O)O)c(=O)n1c23 (single isomer, unassigned) | ≤ 0.03 | 5.2 | -0.68 | 0.25 (≈ 0.623 µM) |  | 
4 | Cc1c(N2CC[C@@H](C3(N)CC3)C2)c(F)cc2cc(-c3ncon3)c(=O)n(C3CC3)c12 | 0.25 (≈ 0.611 µM) | 8.4 | 1.46 | 0.5 (≈ 1.22 µM) |  | 
5 | C[C@H]1COc2c(N3CC[C@@H](C4(N)CC4)C3)c(Cl)cc3cc(C(=O)O)c(=O)n1c23 | 2 (≈ 4.95 µM) |  | -1.12 | 32 (≈ 79.2 µM) |  | 
6 | Cc1c(N2CC[C@@H](C3(N)CC3)C2)c(F)cc2cc(-c3noc(=O)[nH]3)c(=O)n(C3CC3)c12 | 0.125 (≈ 0.294 µM) | 5.4 | -0.32 | 0.125 (≈ 0.294 µM) |  | 
7 | Cc1c(N2CCC(C3(N)CC3)C2)c(F)cc2c(-c3n[nH]c(=O)o3)cc(=O)n(C3CC3)c12 (stereo not drawn) | 0.5 (≈ 1.18 µM) | 6.4 |  | 1 (≈ 2.35 µM) |  | 
8 | Cc1c(N2CC[C@@H](C3(N)CC3)C2)c(F)cc2cc(-c3n[nH]c(=O)o3)c(=O)n(C3CC3)c12 | 0.125 (≈ 0.294 µM) | 7.2 |  | 0.06 (≈ 0.141 µM) |  | 
9 | C[C@H]1COc2c(N3CCN(C)CC3)c(F)cc3cc(C(=O)O)c(=O)n1c23 | 16 (≈ 44.3 µM) | 4.5 | -1.99 | > 32 |  | 
10 | Cc1c(N2CC[C@@H](C3(N)CC3)C2)c(F)cc2cc(Cc3n[nH]c(=O)o3)c(=O)n(C3CC3)c12 | 32 (≈ 72.8 µM) | 8.8 | 0.87 | 32 (≈ 72.8 µM) |  | 
11 | C[C@H]1COc2c(N3CC[C@@H](C4(N)CC4)C3)c(F)c(C#N)c3cc(C(=O)O)c(=O)n1c23 | 0.125 (≈ 0.303 µM) |  | -1.86 | 1 (≈ 2.42 µM) |  | 
12 | Cc1c(N2CC3CC3(N)C2)c(F)cc2c(CN)cc(=O)n(C3CC3)c12 (stereo not drawn) |  | 7.6 | 1.1 | 0.125 (≈ 0.365 µM) | 82 | 40
13 | C[C@H]1COc2c(N3CC[C@@H](C4(N)CC4)C3)c(F)c(F)c3cc(C(=O)O)c(=O)n1c23 | 0.06 (≈ 0.148 µM) |  | -0.85 | 1 (≈ 2.47 µM) |  | 
14 | C[C@H]1COc2c(N3CC[C@H](O)C3)c(F)cc3cc(C(=O)O)c(=O)n1c23 | 0.5 (≈ 1.44 µM) | 5.2 | -0.46 | > 32 |  | 
15 | C[C@H]1COc2c(N3CC[C@@H](C4(N)CC4)C3)cc(Cl)c3cc(C(=O)O)c(=O)n1c23 |  |  |  | 1 (≈ 2.48 µM) |  | 
16 | Cc1c(N2CC[C@@H]([C@H](C)N)C2)c(F)cc2cc(O)c(=O)n(C3CC3)c12 |  | 8.2 |  | 0.5 (≈ 1.45 µM) | 74 | 65
17 | C[C@H]1COc2c(N3CC[C@@H](C4(N)CC4)C3)ccc3cc(C(=O)O)c(=O)n1c23 |  |  |  | 4 (≈ 10.8 µM) |  | 
18 | C[C@H]1COc2c(N3CC4C[C@@H](OC(F)F)C[C@@H](N)[C@H]4C3)c(F)cc3cc(C(=O)O)c(=O)n1c23 (single isomer, unassigned) | 0.06 (≈ 0.128 µM) | 5.2 | -0.4 | 1 (≈ 2.14 µM) |  | 
19 | C[C@H]1COc2c(N3CC4C[C@H](F)C[C@@H](N)[C@H]4C3)c(F)cc3cc(C(=O)O)c(=O)n1c23 (single isomer, unassigned) | ≤ 0.03 | 5.07 | -1.04 | 0.06 (≈ 0.143 µM) |  | 
20 | C[C@H]1COc2c(N3CCC(=C(Cl)CN)CC3)c(F)cc3cc(C(=O)O)c(=O)n1c23 | 4 (≈ 9.48 µM) |  | -0.39 | > 32 |  | 
21 | COc1c(N2C[C@@H]3CCCN[C@@H]3C2)c(F)cc2c(=O)c(C(=O)O)cn(C3CC3)c12 [MOXIFLOXACIN] | 0.06 (≈ 0.149 µM) | 6.7 |  | 4 (≈ 9.96 µM) | > 100 | > 100
22 | C[C@H]1CCOc2c(N3CC[C@@H](C4(N)CC4)C3)c(F)cc3cc(C(=O)O)c(=O)n1c23 | 0.25 (≈ 0.623 µM) |  | 0.01 | 8 (≈ 19.9 µM) |  | 
23 | COc1cc2cc(C(=O)O)c(=O)n3c2c(c1N1CC[C@@H](C2(N)CC2)C1)OC[C@@H]3C | 32 (≈ 80.1 µM) |  | -1.22 | > 32 |  | 
24 | C[C@H]1COc2c(N3CC[C@@H](C4(N)CCC4)C3)c(F)cc3cc(C(=O)O)c(=O)n1c23 | 0.125 (≈ 0.311 µM) | 4.9 | -1.42 | 2 (≈ 4.98 µM) |  | 
